Test [1] deals with human neuroblastoma SH-SY5Y cells. The test can be described thus: Serum deprivation in neuroblastoma cells. The format is cell-based. The following applies: during serum deprivation, vs saline (FIG. 4A). Here is the method: FIG. 4A is a bar graph illustrating that DJ-1-related peptides are protective against serum deprivation.
(§1) Human neuroblastoma SH-SY5Y cells are obtained from the American tissue Type Culture Collection (ATCC, Rockville, USA). Cells are grown under sterile conditions as monolayer in DMEM medium supplemented with 10% heat-inactivated fetal calf serum (FCS), gentamicin ([…]), and glutamine (5 mM) in a 5% CO2 humidified atmosphere at 37° C. The medium is routinely changed every 4 days, and cells are passaged every 8 days. All experiments are performed on cells which are near confluence.

The test system of test [2] is neuronally differentiated murine neural stem cells. The test can be described thus: Oxidative insult (H2O2) in neuronally differentiated neural stem cells. The settings on record: pretreated vs saline before exposure to hydrogen peroxide (FIG. 6). The format is cell-based. Here is the method: Neural progenitor/stem cells are isolated from murine cortex of postnatal c57/bl mice and cultured as neurospheres. Neural and astroglial differentiation are induced.
Susceptibility of differentiated and undifferentiated neural progenitor/stem cells to oxidative and toxic insults are determined with and without prior pretreatment with DJ-1 related peptides.
Susceptibility of differentiated and undifferentiated neural progenitor/stem cells to oxidative and toxic insults was determined with and without prior pretreatment with DJ-1 related peptides, as illustrated in FIG. 6.

The subject of test [3] is human neuroblastoma SH-SY5Y cells. The test can be described thus: 6-hydroxydopamine toxicity in neuroblastoma cells. The format is cell-based. Here is the method: Human neuroblastoma SH-SY5Y cells are obtained from the American tissue Type Culture Collection (ATCC, Rockville, USA). Cells are grown under sterile conditions as monolayer in DMEM medium supplemented with 10% heat-inactivated fetal calf serum (FCS), gentamicin ([…]), and glutamine (5 mM) in a 5% CO2 humidified atmosphere at 37° C. The medium is routinely changed every 4 days, and cells are passaged every 8 days. All experiments are performed on cells which are near confluence. […]
(§2) Cells are seeded in 96-wells plates at the concentration of 5000 cells per well and allowed to attach over night. […] Alamar blue fluorescence is measured by FLUOstar spectrofluorometer at the excitation wavelength of 544 nm and the emission wavelength of 590 nm. […]
(§3) LDH released by damaged cells into the cell culture supernatant is determined using LDH cytotoxicity detection kit (Clontech laboratories, CA, USA), according to the manufacturer's instructions. […] The percentage of dead cells is calculated by the following formula of the absorbance values: (triplicate absorbance−low control)/(maximum absorption−low control)×100.
Hoechst 33342 enters cells with intact or damaged membranes and stains DNA in blue, thereby allowing evaluation of cell number in each well as well. […] Excitation is performed at 346 nm and emission wavelength is determined at 460 nm. […]

Test [4] relates to HaCaT cells. The test can be described thus: Protection against UV radiation in keratinocytes. The format is cell-based, human. The following applies: HaCaT pretreated vs saline before UV radiation (FIG. 14). Here is the method:
The immortalized human HaCaT keratinocyte cells are used to test DJ-1 related peptides ability to protect against UV radiation induced injury. Cells are maintained in minimal essential medium containing 0.075 mM Ca^2+ (MEM-75) and 10% FCS in 5 cm Petri-dishes and subcultured every 3-4 days.
Cultured keratinocytes were used to examine the ability of DJ-1 related peptides to protect against the damaging effects of UV radiation.

Test [5] deals with human neuroblastoma SH-SY5Y cells. The test is described as follows: Hydrogen peroxide (H2O2) oxidative stress in neuroblastoma cells. The format is cell-based. The protocol: as §1
(§4) Neuroblastoma cells are contacted with hydrogen peroxide (H2O2) (0-1 mM; Sigma, Chemicals Co., St. Louis, Mo., USA), 6-hydroxydopamine (0-100 μM; Sigma, Chemicals Co., St. Louis, Mo., USA), dopamine (0-500 μM; Sigma, Chemicals Co., St. Louis, Mo., USA) and 3-(4-morpholinyl)-sydnonimine (SIN-I) (0-5 mM; Sigma), (which is a peroxynitrite free radical donor), in order to produce ROS formation.
Several methods are used in order to determine the toxic effects of oxidative insults, neurotoxins and dopamine on cellular metabolic activity, mitochondrial activity and cell viability.
as §2, §3
Hoechst 33342 enters cells with intact or damaged membranes and stains DNA in blue, thereby allowing evaluation of cell number in each well as well. A FLUOstar spectrofluorometer microplate reader may be used in order to evaluate the cell number in each well following exposure to different doses of various toxins. Excitation is performed at 346 nm and emission wavelength is determined at 460 nm. […]

Test [6] concerns 6-hydroxydopamine hemiparkinsonian mice model. The test can be described thus: In vivo 6-hydroxydopamine induced hemiparkinsonian mice model.
Test [7] concerns human neuroblastoma SH-SY5Y cells. The test can be described thus: Cell proliferation by [3H]thymidine incorporation. The format is cell-based. The settings on record: exposure to the peptides (FIG. 1D). Here is the method:
FIGS. 1A-F are bar graphs illustrating that DJ-1-related peptide TAT 2a (SEQ ID NO: 24) is protective in vitro against oxidative and toxic insults. […] Cell proliferation was measured by quantifying [^3H]thymidine incorporation. […] The presented experiments were done on human neuroblastoma SH-SY5Y cells, and repeated at least 3 times. *p<0.05, as compared to control cells treated with vehicle and exposed to the same toxic insult.
as §1
On the technique in general: Incorporation of labelled thymidine or its analogues reports DNA synthesis.

For test [8], the system named is neuroblastoma cells overexpressing A53T alpha-synuclein. The test can be described thus: Hydrogen peroxide toxicity in cells overexpressing mutant alpha-synuclein. The format is cell-based, human. The following applies: A53T alpha-synuclein cells exposed to hydrogen peroxide (FIG. 10). The protocol: The coding region of human wild-type or A53T mutant alpha-synuclein cDNA is subcloned into pcDNA3.1-plasmid (BD Biosciences, Clontech). In order to achieve overexpression of A53T mutant alpha-synuclein, SH-SY5Y neuroblastoma cells are stably transfected with the plasmid containing A53T mutant alpha-synuclein. Transfections are performed using the lipofectamine 2000 reagent (Invitrogen, Carlsbad, Calif.). Selection of transfected cells is performed by treating the cells with lethal doses of geniticin (G-418). Naive neuroblastoma cells as well as cells stably transfected with the empty vector are used as controls.
Stable transfections are verified by measuring alpha-synuclein mRNA and protein levels using real-time PCR and Western blotting.
A53T mutant alpha-synuclein is one of the causes for genetically inherited Parkinson's Disease. Neuroblastoma cells overexpressing mutated alpha-synuclein were used as a cellular platform for Parkinson's Disease. In order to achieve overexpression of A53T mutant alpha-synuclein, SH-SY5Y neuroblastoma cells were stably transfected with the plasmid containing A53T mutant alpha-synuclein.

The test system of test [9] is primary mixed neuronal and glial cultures obtained from cortex of postnatal wild type C57/bl mice. The test can be described thus: Hydrogen peroxide toxicity in primary cultures. The format is cell-based. The following applies: increasing concentrations of hydrogen peroxide (FIGS. 5A-B). The protocol: (§5) Murine neuronal and astrocytes primary cultures derived from cortical tissues of post natal c57/bl mice are prepared and used in order to examine protective potential of DJ-1 related peptides.
(§6) T protective effects of DJ-1 peptides on primary cultures, and on differentiated and undifferentiated neural stem cells obtained from C57/bl mice brains were evaluated. […] Specifically, FIGS. 5A-B illustrate protection of Tat 2A against oxidative and toxic injuries in primary mixed neuronal and astrocytes cultures from post natal mice brains. Neural progenitor/stem cells were isolated from murine cortex of postnatal c57/bl mice and cultured as neuro spheres. Neural and astroglial differentiation were induced.

Test [10] concerns human neuroblastoma SH-SY5Y cells. The test can be described thus: Dopamine toxicity in neuroblastoma cells. The format is cell-based. The following applies: SH-SY5Y (FIG. 1F). Here is the method: as §1, §4
Cells are seeded in 96-wells plates at the concentration of 5000 cells per well and allowed to attach over night. On the following day, the cells are exposed to increasing doses of dopamine (0-500 uM) for 4 hours in serum free medium. Alamar blue is a non toxic reagent which incorporates a redox indicator that changes color in response to metabolic activity. […] Alamar blue fluorescence is measured by FLUOstar spectrofluorometer at the excitation wavelength of 544 nm and the emission wavelength of 590 nm. […]

Test [11] relates to NSC-34 cells. The test can be described thus: SIN-I toxicity in cellular model of ALS. The following applies: NSC-34 pretreated vs saline before SIN-I (FIG. 12B). The format is cell-based. Here is the method: as §4
(§7) NSC-34 cells were used as a cellular model for ALS. Increasing doses of hydrogen peroxide and SIN-I, an NO donor, which are implicated in the pathogenesis of ALS were used.

Test [12] has as its system NSC-34 cells. The test can be described thus: Hydrogen peroxide toxicity in cellular model of ALS. The format is cell-based. The settings on record: NSC-34 pretreated vs saline before hydrogen peroxide (FIG. 12A).
Description: as §7

The subject of test [13] is primary mixed neuronal and glial cultures obtained from cortex of postnatal wild type C57/bl mice. The test can be described thus: 6-hydroxydopamine toxicity in primary cultures. The format is cell-based. The following applies: increasing concentrations of 6-hydroxydopamine (FIGS. 5A-B). The protocol:
as §5, §6

Test [14] relates to MPTP Parkinson's model. The test is described as follows: MPTP Parkinson's model in mice. The format is in vivo. The following applies: subcutaneous 0.4 mM; MPTP 20 mg/kg i.p. 5 consecutive days; 18 days later (FIG. 17). The protocol:
In order to generate an animal model for Parkinson's disease, mice were treated with 1-methyl-4-phenyl-1,2,3,6-tetrahydropyridine (MPTP). 5 mice (C57/bl) were injected for 5 consecutive days with 20 mg/kg MPTP (i.p.) in the presence and absence of the DJ-1 related peptide (0.4 mM subcutaneous; SEQ ID NO: 25). 18 days later, the mice were sacrificed and the dopamine level, in the two hemispheres was measured by HPLC.

Turning to GAEEME (Artificial seqence) [peptide I], the viability entry in test [1] and in test [2] was “Increased viability” each time.
For the substance “KGAEEMETVIPV (Artificial seqence) [short 2a]”, the viability result in test [1] is on record as “Increased viability”.
Regarding “VDVMRRAGI (Artificial seqence) [peptide II]”, the viability entry in test [1], in [2] and in test [3] (SH-SY5Y pretreated vs saline before 6-hydroxydopamine (FIG. 3)) was “Increased viability” in each case. Moreover, the metabolic activities result in test [4] is “Increased metabolic activities”.
With “YGRKKRRKGAEEMETVIPVD (Artificial seqence) [TAT 2a]”, the cell viability entry in test [5] (exposure to H2O2, vs saline alone (FIG. 1A)) was “Increased cell viability”. Moreover, in test [5] (exposure to H2O2, vs saline alone (FIG. 1B)), the mitochondrial damage entry is “decreased mitochondrial damage”. In addition, the metabolic activity entry in test [5] (exposure to H2O2, vs saline alone (FIG. 1C)) is listed as “increased metabolic activity”. Moreover, the “fraction of the lesioned mice that rotated in response to amphetamine injection” value in test [6] (50 μg IV 4 hours before 6-hydroxydopamine lesioning (FIG. 16B)) and in [6] (intrastriatal 2 μl of 100 μM one hour before lesioning (FIG. 15B)) was “smaller fraction” in each case. Further, the amphetamine-induced rotations entry in [6] (50 μg IV 4 hours before 6-hydroxydopamine lesioning, vs saline (FIG. 16A)) was “Significantly reduced”; in [6] (intrastriatal 2 μl of 100 μM one hour before lesioning, 2 and 4 weeks after lesioning, vs saline (FIG. 15A)) it was “Significantly reduced”. In addition, the “accelerating Rotarod examination” value in test [6] (intrastriatal peptide vs saline-treated controls, p=0.02) is recorded as “significant difference”. The “6-hydroxydopamine-induced loss of tyrosine hydroxylase (TH) staining in the lesioned striatum” value in test [6] (intrastriatal peptide, immunohistochemical staining) is reported as “reversed”. Moreover, the “cell proliferation ([3H]thymidine incorporation)” value in test [7] was “no increased cell proliferation”. In addition, the “protection against 6-hydroxydopamine toxicity” value in test [3] (SH-SY5Y (FIG. 1E)) is on record as “Protection”; in test [13], “protection”. Besides, in test [4], the metabolic activities entry is recorded as “Increased metabolic activities”. The viability entry in [8] is given as “Significantly increased viability”; in test [11] it was “Increased viability”; in test [12] it was “Increased viability”. In test [9], the “protection against H2O2 toxicity” value is given as “protection”. In addition, the “protection against dopamine toxicity” value in test [10] was “Protection”.
As to “YGRKKRRTVIPVDVMRRAGI (Artificial seqence) [TAT 2b]”, the “protection against MPTP Parkinson's model (dopamine level by HPLC)” value in test [14] is given as “protects”. The viability result in test [11] and in test [12] was “Increased viability” throughout.

The values are drawn from patent publication US9023800B2, “Peptides for the treatment of oxidative stress related disorders” (Ramot at Tel-Aviv University Ltd., priority 2009, dated 2015).
